Several values for one entry are separate records, joined by “and”; a condition that tells them apart may be missing. Equal values may be shown once. Inconclusive results and toxic doses are left out. Rule for the calls: active = survival T/C of 150% or more; inactive = T/C below 125% in these data.
Tested on: P388 leukemia ip, CD2F1 mice, survival T/C
Test: NCI In Vivo Anticancer Drug Screen. Data for tumor model P388 Leukemia (intraperitoneal) in CD2F1 (CDF1) mice
Settings: endpoint: median survival time, higher = longer survival
Method in brief: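 Mice carrying the transplanted tumor received test compound or vehicle. Survival was recorded in each group, and the value is the treated-group measurement divided by that of the vehicle-treated control group.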

[1] = dose: 50.0 mg/kg/injection, schedule: Q01DX005 (ip), vehicle: Klucel (hydroxypropylcellulose) (HPC)
[2] = dose: 100.0 mg/kg/injection, schedule: Q01DX005 (ip), vehicle: Klucel (hydroxypropylcellulose) (HPC)
[3] = dose: 200.0 mg/kg/injection, schedule: Q01DX005 (ip), vehicle: Klucel (hydroxypropylcellulose) (HPC)
[4] = dose: 25.0 mg/kg/injection, schedule: Q01DX009 (ip), vehicle: saline with Tween-80
[5] = dose: 100.0 mg/kg/injection, schedule: Q04DX003 (ip), vehicle: saline
[6] = dose: 200.0 mg/kg/injection, schedule: Q04DX003 (ip), vehicle: saline
[7] = dose: 100.0 mg/kg/injection, schedule: Q01DX009 (ip), vehicle: saline with Tween-80
[8] = dose: 200.0 mg/kg/injection, schedule: Q01DX009 (ip), vehicle: saline with Tween-80
[9] = dose: 60.0 mg/kg/injection, schedule: Q01DX005 (ip), vehicle: saline with Tween-80
[10] = dose: 120.0 mg/kg/injection, schedule: Q01DX005 (ip), vehicle: saline with Tween-80
[11] = dose: 240.0 mg/kg/injection, schedule: Q01DX005 (ip), vehicle: saline with Tween-80
[12] = dose: 50.0 mg/kg/injection, schedule: Q01DX009 (ip), vehicle: Klucel (hydroxypropylcellulose) (HPC)
[13] = dose: 100.0 mg/kg/injection, schedule: Q01DX009 (ip), vehicle: Klucel (hydroxypropylcellulose) (HPC)
[14] = dose: 200.0 mg/kg/injection, schedule: Q01DX009 (ip), vehicle: Klucel (hydroxypropylcellulose) (HPC)
[15] = dose: 50.0 mg/kg/injection, schedule: Q01DX009 (ip), vehicle: saline with Tween-80
[16] = dose: 100.0 mg/kg/injection, schedule: Q04DX002 (ip), vehicle: saline with Tween-80
[17] = dose: 200.0 mg/kg/injection, schedule: Q04DX002 (ip), vehicle: saline with Tween-80
[18] = dose: 50.0 mg/kg/injection, schedule: Q01DX005 (ip), vehicle: saline with Tween-80
[19] = dose: 6.25 mg/kg/injection, schedule: Q01DX005 (ip), vehicle: saline with Tween-80
[20] = dose: 12.5 mg/kg/injection, schedule: Q01DX005 (ip), vehicle: saline with Tween-80

Measured: T/C

Cc1ccc(S(=O)(=O)N/N=C2/C=CC3(CCCC3)CC2)cc1
inactive: dose: 50.0 mg/kg/injection, schedule: Q01DX001 (ip), vehicle: Klucel (hydroxypropylcellulose) (HPC) 88 % of control | dose: 100.0 mg/kg/injection, schedule: Q01DX001 (ip), vehicle: Klucel (hydroxypropylcellulose) (HPC) 91 % of control | dose: 200.0 mg/kg/injection, schedule: Q01DX001 (ip), vehicle: Klucel (hydroxypropylcellulose) (HPC) 88 % of control and 90 % of control | dose: 400.0 mg/kg/injection, schedule: Q01DX001 (ip), vehicle: Klucel (hydroxypropylcellulose) (HPC) 89 % of control

OCCOc1ccc(OCCO)c2ccccc12
inactive: [1] 103 % of control | [2] 104 % of control | [3] 100 % of control

CCCCCCCCCCCCCC(=O)OCCN1CCN(CCCN2c3ccccc3Sc3ccc(C(F)(F)F)cc32)CC1
inactive: dose: 3.12 mg/kg/injection, schedule: Q01DX009 (ip), vehicle: saline with Tween-80 106 % of control | dose: 6.25 mg/kg/injection, schedule: Q01DX009 (ip), vehicle: saline with Tween-80 102 % of control | dose: 12.5 mg/kg/injection, schedule: Q01DX009 (ip), vehicle: saline with Tween-80 112 % of control and 113 % of control | [4] 116 % of control

CN(C)C(=S)c1ccccc1NS(=O)(=O)c1ccccc1
inactive: [5] 106 % of control | [6] 100 % of control | dose: 400.0 mg/kg/injection, schedule: Q04DX003 (ip), vehicle: saline 97 % of control

O=C1/C(=C/c2ccccc2)Cc2ccccc21
inactive: [7] 100 % of control | [8] 100 % of control | dose: 400.0 mg/kg/injection, schedule: Q01DX009 (ip), vehicle: saline with Tween-80 95 % of control

COc1cc2ccc(C(C)=O)c(O)c2cc1OC
inactive: dose: 12.5 mg/kg/injection, schedule: Q01DX009 (ip), vehicle: other 92 % of control | dose: 25.0 mg/kg/injection, schedule: Q01DX009 (ip), vehicle: other 101 % of control | dose: 50.0 mg/kg/injection, schedule: Q01DX009 (ip), vehicle: other 90 % of control | dose: 100.0 mg/kg/injection, schedule: Q01DX009 (ip), vehicle: other 108 % of control | dose: 200.0 mg/kg/injection, schedule: Q01DX009 (ip), vehicle: other 97 % of control | dose: 400.0 mg/kg/injection, schedule: Q01DX009 (ip), vehicle: other 99 % of control

O=c1cc(NC2OC(CO)C(O)C(O)C2O)[nH]c(=O)[nH]1 (configuration not stated)
inactive: [9] 96 % of control | [10] 102 % of control | [11] 104 % of control

CC#CC#C/C=C1/C=CC2(CC=CO2)O1 (configuration not stated)
inactive: dose: 12.5 mg/kg/injection, schedule: Q01DX009 (ip), vehicle: Klucel (hydroxypropylcellulose) (HPC) 107 % of control | dose: 25.0 mg/kg/injection, schedule: Q01DX009 (ip), vehicle: Klucel (hydroxypropylcellulose) (HPC) 106 % of control | [12] 111 % of control | [13] 114 % of control

O=C(CCl)NCc1ccccc1
inactive: [5] 98 % of control | [6] 100 % of control

CCCCc1c(C)[nH]n(C(N)=NCCSCc2nc[nH]c2C)c1=O
inactive: dose: 60.0 mg/kg/injection, schedule: Q01DX005 (ip), vehicle: Klucel (hydroxypropylcellulose) (HPC) 100 % of control | dose: 120.0 mg/kg/injection, schedule: Q01DX005 (ip), vehicle: Klucel (hydroxypropylcellulose) (HPC) 99 % of control | dose: 240.0 mg/kg/injection, schedule: Q01DX005 (ip), vehicle: Klucel (hydroxypropylcellulose) (HPC) 100 % of control

CC(C)(O)[C@@H]1Cc2cc3ccc(=O)oc3cc2O1
inactive: dose: 1.0 mg/kg/injection, schedule: Q01DX005 (ip), vehicle: Klucel (hydroxypropylcellulose) (HPC) 89 % of control | dose: 2.0 mg/kg/injection, schedule: Q01DX005 (ip), vehicle: Klucel (hydroxypropylcellulose) (HPC) 102 % of control | dose: 4.0 mg/kg/injection, schedule: Q01DX005 (ip), vehicle: Klucel (hydroxypropylcellulose) (HPC) 98 % of control | dose: 8.0 mg/kg/injection, schedule: Q01DX005 (ip), vehicle: Klucel (hydroxypropylcellulose) (HPC) 96 % of control | dose: 16.0 mg/kg/injection, schedule: Q01DX005 (ip), vehicle: Klucel (hydroxypropylcellulose) (HPC) 96 % of control

Cc1cc(Br)c2c(c1)C(C(F)(F)F)(C(F)(F)F)OC(C)(C)N2
inactive: [12] 94 % of control | [13] 100 % of control | [14] 101 % of control

CCn1c(=O)[nH]c(=O)c2conc21
inactive: [4] 95 % of control | [15] 104 % of control | [7] 96 % of control

CC1C(=O)C2(C(=O)O)CC1CCC2C12C=CC(=O)C(C)(C)C1C(=O)OC2 (configuration not stated)
inactive: dose: 50.0 mg/kg/injection, schedule: Q04DX002 (ip), vehicle: saline with Tween-80 100 % of control | [16] 95 % of control | [17] 91 % of control

O=C1Nc2c(Cl)cc(Cl)cc2/C1=N/N=C/c1ccccc1O
inactive: [18] 91 % of control

CC1=C[C@H]2[C@@]3(O)[C@H](C)[C@@H](OC(=O)c4ccccc4)[C@]4(OC(=O)c5ccccc5)[C@H]([C@@H]3C=C(COC(=O)c3ccccc3)C[C@]2(O)C1=O)C4(C)C
inactive: dose: 20.0 micrograms/kg/injection, schedule: Q01DX009 (ip), vehicle: saline + alcohol 100 % of control | dose: 40.0 micrograms/kg/injection, schedule: Q01DX009 (ip), vehicle: saline + alcohol 96 % of control | dose: 80.0 micrograms/kg/injection, schedule: Q01DX009 (ip), vehicle: saline + alcohol 102 % of control | dose: 160.0 micrograms/kg/injection, schedule: Q01DX009 (ip), vehicle: saline + alcohol 100 % of control | dose: 320.0 micrograms/kg/injection, schedule: Q01DX009 (ip), vehicle: saline + alcohol 94 % of control

Cc1cc(Nc2ccc3c(c2)OCO3)c2cc3c(cc2n1)OCO3
inactive: [1] 105 % of control and 107 % of control | [2] 116 % of control
active: [3] 165 % of control and 178 % of control

O=C(CCCc1ccc(N(CCCl)CCCl)cc1)Nc1ncccn1
inactive: dose: 5.3 mg/kg/injection, schedule: Q01DX009 (ip), vehicle: Klucel (hydroxypropylcellulose) (HPC) 95 % of control
active: dose: 8.0 mg/kg/injection, schedule: Q01DX009 (ip), vehicle: Klucel (hydroxypropylcellulose) (HPC) 159 % of control | dose: 12.0 mg/kg/injection, schedule: Q01DX009 (ip), vehicle: Klucel (hydroxypropylcellulose) (HPC) 150 % of control | dose: 18.0 mg/kg/injection, schedule: Q01DX009 (ip), vehicle: Klucel (hydroxypropylcellulose) (HPC) 159 % of control

C=C(Br)S(=O)(=O)OCCCl
inactive: [19] 105 % of control | [20] 104 % of control

O=C(CN=Cc1ccc(Cl)cc1Cl)NNC(=O)c1ccc(Cl)cc1Cl
inactive: [1] 92 % of control | [2] 96 % of control | [3] 92 % of control

CCN(C(=S)NNC(=S)N/N=C(\C)c1ccccn1)c1ccccc1
inactive: [19] 94 % of control | [20] 107 % of control | dose: 25.0 mg/kg/injection, schedule: Q01DX005 (ip), vehicle: saline with Tween-80 109 % of control | [18] 112 % of control | dose: 100.0 mg/kg/injection, schedule: Q01DX005 (ip), vehicle: saline with Tween-80 120 % of control

COC(=O)C1(C(=O)OC)C2C=CC(Cl)C21 (configuration not stated)
inactive: [12] 96 % of control | [13] 104 % of control | [14] 93 % of control

CC(C)(C)OC(=O)C(N(Cc1ccccc1)Cc1ccccc1)N(Cc1ccccc1)Cc1ccccc1
inactive: [9] 88 % of control | [10] 88 % of control | [11] 86 % of control

CC(=Nc1c[nH]c(=O)[nH]c1=O)c1ccccc1
inactive: dose: 100.0 mg/kg/injection, schedule: Q04DX002 (ip), vehicle: suspension in saline 104 % of control | dose: 200.0 mg/kg/injection, schedule: Q04DX002 (ip), vehicle: suspension in saline 101 % of control | dose: 400.0 mg/kg/injection, schedule: Q04DX002 (ip), vehicle: suspension in saline 94 % of control

O=C(O)c1ccc(N=CC2CO2)cc1 (configuration not stated)
inactive: [15] 99 % of control | [7] 102 % of control | [8] 87 % of control

CCCN1C(=O)C(C)N(S(=O)(=O)c2ccc(-n3nc(C)cc3C)cc2)C1=S (configuration not stated)
inactive: [16] 94 % of control | [17] 102 % of control | dose: 400.0 mg/kg/injection, schedule: Q04DX002 (ip), vehicle: saline with Tween-80 100 % of control
